# Measured values as given in patent publication US8742117B2, “Oxime derivatives” (Cadila Healthcare Limited, priority 2008, dated 2014).
# What was measured:
# human GPR 119 receptor = target: T1, human GPR 119 receptor (Homo sapiens, UniProt Q8TDV5); experiment: cAMP assay in stable cell line expressing recombinant human GPR 119 receptor; assay type: cell-based; conditions: intracellular cAMP, recombinant human GPR 119 cell line
# T1 construct: expressed in transfected cells
# T1 sequence (Q8TDV5 1-335): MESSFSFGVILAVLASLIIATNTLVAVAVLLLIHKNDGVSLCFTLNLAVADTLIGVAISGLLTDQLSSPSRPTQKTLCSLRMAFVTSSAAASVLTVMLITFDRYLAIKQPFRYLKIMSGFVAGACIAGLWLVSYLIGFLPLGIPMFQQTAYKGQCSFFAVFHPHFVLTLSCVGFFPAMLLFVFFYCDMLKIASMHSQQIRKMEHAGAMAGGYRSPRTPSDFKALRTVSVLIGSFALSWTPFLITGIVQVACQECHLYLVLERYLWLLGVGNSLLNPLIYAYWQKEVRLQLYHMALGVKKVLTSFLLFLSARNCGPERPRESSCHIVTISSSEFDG
# Source text: A stable cell line expressing recombinant human GPR 119 receptor was established and used to investigate the efficacy of the compounds of the invention based on the intracellular levels of cyclic AMP (cAMP) using commercially available cAMP kits. Compounds of the invention produced a concentration dependent increase in cAMP level and EC50 values of representative compounds were provided in table 1 and table 2 respectively.
# Sprague Dawley rats = experiment: Feed intake in Sprague Dawley rats; assay type: in vivo, rat; conditions: 25 mg/kg i.p., cumulative feed intake vs vehicle control
# Source text: In Vivo Efficacy Studies: Feed Intake in Sprague Dawley Rats:
# Sprague Dawley rats of 6-8 week age were be used for this experiment they were be kept for acclimatization in reversed light/dark cycle for 15 days. Animals will have free access to a standard chow diet and water during acclimatization period. After 15 days reversed light/dark cycle acclimatization animals were trained for fasting induced feed intake for 5 days till they show consistent feed intake. Grouping was done based on the monitored feed intake the training days. On treatment day each group of animals were dosed with test compound or vehicle by appropriate routes of administration (orally or intraperitoneally). Exactly 30 min. after treatment, measured amount of standard chow diet was provided and recorded as 0-min feed offered. Then subsequently 2, 4, 6 and 24 hour after 0-min, feed intake was measured and the cumulative feed intakes were calculated. The change in cumulative feed intake as compare to vehicle treated control at each time point was calculated for test compound and results were provided in table 2
SMILES,% activity at 1 μM (human GPR 119 receptor) [%],further results
"CC(=NOc1ncnc(N2CCC(c3nc(C(C)C)no3)CC2)c1[N+](=O)[O-])c1cc2ccccc2o1 [Example 1, 1-(benzofuran-2-yl)ethanone O-6-(4-(3-isopropyl-1,2,4-oxadiazol-5-yl)piperidin-1-yl)-5-nitropyrimidin-4-yl oxime]",62.46,EC50 (human GPR 119 receptor): 802 nM
"CC(=NOc1ncnc(N2CCC(c3nc(C(C)C)no3)CC2)c1[N+](=O)[O-])c1ccc(C)cc1 [Example 2, 1-p-tolylethanone O-6-(4-(3-isopropyl-1,2,4-oxadiazol-5-yl)piperidin-1-yl)-5-nitropyrimidin-4-yl oxime]",37.75,–
"CC(=NOc1ncnc(N2CCC(c3nc(C(C)C)no3)CC2)c1C)c1ccc(S(C)(=O)=O)cc1 [Example 3, 1-(4-(methylsulfonyl)phenyl)ethanone O-6-(4-(3-isopropyl-1,2,4-oxadiazol-5-yl)piperidin-1-yl)-5-methylpyrimidin-4-yl oxime]",73.40,–
"CC(=NOc1ncnc(N2CCC(c3nc(C(C)C)no3)CC2)c1[N+](=O)[O-])c1ccc2c(c1)OCO2 [Example 4, 1-(benzo[d][1,3]dioxol-5-yl)ethanone O-6-(4-(3-isopropyl-1,2,4-oxadiazol-5-yl)piperidin-1-yl)-5-nitropyrimidin-4-yl oxime]",47.28,% reduction in food in take 2 hour (Sprague Dawley rats): 45.3%; % reduction in food in take 4 hour (Sprague Dawley rats): 29%; % reduction in food in take 6 hour (Sprague Dawley rats): 14.1%; % reduction in food in take 24 hour (Sprague Dawley rats): 0%
"CC(=NOc1ncnc(N2CCC(c3nc(C(C)C)no3)CC2)c1C)c1ccc2c(c1)OCO2 [Example 5, 1-(benzo[d][1,3]dioxol-5-yl)ethanone O-6-(4-(3-isopropyl-1,2,4-oxadiazol-5-yl)piperidin-1-yl)-5-methylpyrimidin-4-yl oxime]",58.37,% reduction in food in take 2 hour (Sprague Dawley rats): 39%; % reduction in food in take 4 hour (Sprague Dawley rats): 40%; % reduction in food in take 6 hour (Sprague Dawley rats): 31%; % reduction in food in take 24 hour (Sprague Dawley rats): 8.2%
"CC(=NOc1ncnc(N2CCC(c3nc(C(C)C)no3)CC2)c1C)c1cccnc1 [Example 12, 1-(pyridin-3-yl)ethanone O-6-(4-(3-isopropyl-1,2,4-oxadiazol-5-yl)piperidin-1-yl)-5-methylpyrimidin-4-yl oxime]",20.32,–
"CC(=NOc1ncnc(N2CCC(c3nc(C(C)C)no3)CC2)c1[N+](=O)[O-])c1ccc(OC(F)(F)F)cc1 [Example 13, 1-(4-(trifluoromethoxy)phenyl)ethanone O-6-(4-(3-isopropyl-1,2,4-oxadiazol-5-yl)piperidin-1-yl)-5-nitropyrimidin-4-yl oxime]",93.76,EC50 (human GPR 119 receptor): 242 nM
"CC(=NOc1ncnc(N2CCC(c3nc(C(C)C)no3)CC2)c1C)c1ccc2c(c1)CCCC2 [Example 17, 1-(5,6,7,8-tetrahydronaphthalen-2-yl)ethanone O-6-(4-(3-isopropyl-1,2,4-oxadiazol-5-yl)piperidin-1-yl)-5-methylpyrimidin-4-yl oxime]",29.24,–
"CC(=NOc1ncnc(N2CCC(c3nc(C(C)C)no3)CC2)c1[N+](=O)[O-])c1ccc2c(c1)CCCC2 [Example 18, 1-(5,6,7,8-tetrahydronaphthalen-2-yl)ethanone O-6-(4-(3-isopropyl-1,2,4-oxadiazol-5-yl)piperidin-1-yl)-5-nitropyrimidin-4-yl oxime]",31.37,–
"CC(=NOc1ncnc(N2CCC(c3nc(C(C)C)no3)CC2)c1C)c1ccc(-c2ccccc2)cc1 [Example 24, 1-(biphenyl-4-yl)ethanone O-6-(4-(3-isopropyl-1,2,4-oxadiazol-5-yl)piperidin-1-yl)-5-methylpyrimidin-4-yl oxime]",8.7,–
"CC(=NOc1ncnc(N2CCC(c3nc(C(C)C)no3)CC2)c1[N+](=O)[O-])c1ccc(-c2ccccc2)cc1 [Example 25, 1-(biphenyl-4-yl)ethanone O-6-(4-(3-isopropyl-1,2,4-oxadiazol-5-yl)piperidin-1-yl)-5-nitropyrimidin-4-yl oxime]",32.0,–

# Second part, led by results:
% activity at 1 μM (human GPR 119 receptor) [%],SMILES,further results
40.68,"CC(=NOc1ncnc(N2CCC(c3nc(C(C)C)no3)CC2)c1C)c1cc2ccccc2o1 [Example 19, 1-(benzofuran-2-yl)ethanone O-6-(4-(3-isopropyl-1,2,4-oxadiazol-5-yl)piperidin-1-yl)-5-methylpyrimidin-4-yl oxime]",–
24.55,"Cc1c(ON=C(c2ccccc2)c2ccccc2)ncnc1N1CCC(c2nc(C(C)C)no2)CC1 [Example 20, Benzophenone O-6-(4-(3-isopropyl-1,2,4-oxadiazol-5-yl)piperidin-1-yl)-5-methylpyrimidin-4-yl oxime]",–
19.43,"CC(C)c1noc(C2CCN(c3ncnc(ON=C(c4ccccc4)c4ccccc4)c3[N+](=O)[O-])CC2)n1 [Example 21, Benzophenone O-6-(4-(3-isopropyl-1,2,4-oxadiazol-5-yl)piperidin-1-yl)-5-nitropyrimidin-4-yl oxime]",–
10.2,"CCCCC(=NOc1ncnc(N2CCC(c3nc(C(C)C)no3)CC2)c1[N+](=O)[O-])c1ccccc1 [Example 26, 1-phenylpentan-1-one O-6-(4-(3-isopropyl-1,2,4-oxadiazol-5-yl)piperidin-1-yl)-5-nitropyrimidin-4-yloxime]",–
33.4,"CC(=NOc1ncnc(N2CCC(c3nc(C(C)C)no3)CC2)c1[N+](=O)[O-])c1cccs1 [Example 28, 1-(thiophen-2-yl)ethanone O-6-(4-(3-isopropyl-1,2,4-oxadiazol-5-yl)piperidin-1-yl)-5-nitropyrimidin-4-yl oxime]",–
13.7,"Cc1c(ON=C(c2ccc(F)cc2)c2ccc(F)cc2)ncnc1N1CCC(c2nc(C(C)C)no2)CC1 [Example 29, bis(4-fluorophenyl)methanone O-6-(4-(3-isopropyl-1,2,4-oxadiazol-5-yl)piperidin-1-yl)-5-methylpyrimidin-4-yl oxime]",–
24.65,"CCCCC(=NOc1ncnc(N2CCC(c3nc(C(C)C)no3)CC2)c1C)c1ccccc1 [Example 30, 1-phenylpentan-1-one O-6-(4-(3-isopropyl-1,2,4-oxadiazol-5-yl)piperidin-1-yl)-5-methylpyrimidin-4-yl oxime]",–
12.18,"CC(C)c1noc(C2CCN(c3ncnc(ON=C(c4ccc(F)cc4)c4ccc(F)cc4)c3[N+](=O)[O-])CC2)n1 [Example 31, bis(4-fluorophenyl)methanone O-6-(4-(3-isopropyl-1,2,4-oxadiazol-5-yl)piperidin-1-yl)-5-nitropyrimidin-4-yl oxime]",–
32.16,"CC(=NOc1ncnc(N2CCC(c3nc(C(C)C)no3)CC2)c1C)c1ccccc1 [Example 32, Acetophenone O-6-(4-(3-isopropyl-1,2,4-oxadiazol-5-yl)piperidin-1-yl)-5-methylpyrimidin-4-yloxime]",–
59.34,"CC(=NOc1ncnc(N2CCC(c3nc(C(C)C)no3)CC2)c1[N+](=O)[O-])c1ccccc1 [Example 33, Acetophenone O-6-(4-(3-isopropyl-1,2,4-oxadiazol-5-yl)piperidin-1-yl)-5-nitropyrimidin-4-yl oxime]",–
